Measured values published in patent US5236926A, “9-substituted-8-halo or -8-hydroxy-9-deazaguanines as inhibitors or PNP for pharmaceutical compositions” (Warner-Lambert Company, priority 1992, dated 1993).

What was measured:
[1] = system: skin graft in dogs; conditions: cited from earlier work
[2] = target: T1, purine nucleoside phosphorylase (PNP-4) (Homo sapiens, UniProt P00491); assay: PNP-4 enzyme assay (radiochemical, [14C]-hypoxanthine formation from [14C]inosine); format: biochemical; conditions: human erythrocyte as enzyme source; activity table
T1 construct: using human erythrocyte as the enzyme source; from tissue; host or cells: human erythrocyte
T1 sequence (P00491 1-289): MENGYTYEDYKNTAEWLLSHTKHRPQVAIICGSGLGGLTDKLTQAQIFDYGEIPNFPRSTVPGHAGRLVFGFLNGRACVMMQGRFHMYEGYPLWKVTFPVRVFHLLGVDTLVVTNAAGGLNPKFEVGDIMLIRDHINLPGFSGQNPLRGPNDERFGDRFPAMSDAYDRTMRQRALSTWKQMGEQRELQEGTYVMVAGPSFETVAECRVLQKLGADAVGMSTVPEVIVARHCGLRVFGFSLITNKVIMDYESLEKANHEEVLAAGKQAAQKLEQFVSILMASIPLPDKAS
Method: In the purine nucleoside phosphorylase (PNP-4) enzyme assay, an IC50 is achieved at a dose of about from 0.9 to 3.18 micromoles on selected compounds of the present invention. PNP-4 activity for the compounds of Formula I is measured radiochemically by measuring the formation of [^14 -C]-hypoxanthine from [^14 -C]inosine [Biomedicine 33:39 (1980)]using human erythrocyte as the enzyme source. An in vivo inhibition of purine nucleoside phosphorylase (HPLC-1) enzyme assay is used essentially as disclosed in the Annals of New York Academy of Sciences 451:313 (1985) to further show the activity of the compounds of Formula I of the present invention. […] Since removal of T-cells or modulation of T-cells are beneficial in the treatment of autoimmune diseases, these compounds being selectively cytotoxic to T-cells will, therefore, be useful in their treatment. […] Clinically it has been shown that modulation and/or removal of T-cells by thoracic duct drainage, lymphapheresis, or total lymphoid irradiation gave partial to complete relief from rheumatoid arthritis in patients who were totally refractory to other forms of therapy [A. Tanay, et al, Arthritis and Rheumatism 30(1):1 (1987); S. Strober, et al, Annual of Internal Medicine V-102(4):441-449 (1985); H. G. Nusslein, et al, Arthritis and Rheumatism V-28(11):1205-1210 (1985); E. Brahn, et al, ibid V-27(5):481-487 (1984); and J. Karsh, et al, ibid V 24(7):867-873. (1981)]. […] N. Ellis, et al, JAMA V-256( 22):3110-3116 (Dec. 12, 1986).

SMILES | IC50 [2] | inhibition of rejection of skin graft [1]
Nc1nc2c(nc(N)n2[C@@H]2O[C@H](CO)[C@@H](O)[C@H]2O)c(=O)[nH]1 [8-Aminoguanosine] |  | efficacious for inhibiting rejection of skin graft in dogs
Nc1nc2c(Cc3ccsc3)c(I)[nH]c2c(=O)[nH]1 [Example 5] | > 30000 nM | 
Nc1nc2c(Cc3ccsc3)c(F)[nH]c2c(=O)[nH]1 [Example 8, 2-Amino-6-fluoro-3,5-dihydro-7-(3-thienylmethyl) 4H-pyrrolo[3,2-d]pyrimidin-4 one] | 150 nM | 

The remaining compounds from weak to strong by IC50 [2], led by results:

IC50 [2] | SMILES | inhibition of rejection of skin graft [1]
6900 nM | Nc1nc2c(Cc3ccsc3)c(Br)[nH]c2c(=O)[nH]1 [Example 3, 2-Amino-6-bromo-3,5-dihydro-7-(3-thienylmethyl)-4H-pyrrolo[3,2-d]pyrimidin-4-one] | 
2770 nM | Nc1nc2c(Cc3ccsc3)c(Cl)[nH]c2c(=O)[nH]1 [Example 6, 2-Amino-6-chloro-3,5-dihydro-7-(3-thienylmethyl)-4H-pyrrolo[3,2-d]pyrimidin-4-one] | 
